{
  "source": "paper PMC5538702",
  "about": "“Inhibitory effects and mechanism of dihydroberberine on hERG channels expressed in HEK293 cells” (PLoS ONE, 2017)",
  "molecular_target": "T1, human ether-a-go-go-related gene (hERG) potassium channel (Homo sapiens, UniProt Q12809)",
  "T1 construct": "gene KCNH2; WT hERG stably expressed in HEK293 cells",
  "T1 sequence (Q12809 whole entry, the tested form may be a part)": "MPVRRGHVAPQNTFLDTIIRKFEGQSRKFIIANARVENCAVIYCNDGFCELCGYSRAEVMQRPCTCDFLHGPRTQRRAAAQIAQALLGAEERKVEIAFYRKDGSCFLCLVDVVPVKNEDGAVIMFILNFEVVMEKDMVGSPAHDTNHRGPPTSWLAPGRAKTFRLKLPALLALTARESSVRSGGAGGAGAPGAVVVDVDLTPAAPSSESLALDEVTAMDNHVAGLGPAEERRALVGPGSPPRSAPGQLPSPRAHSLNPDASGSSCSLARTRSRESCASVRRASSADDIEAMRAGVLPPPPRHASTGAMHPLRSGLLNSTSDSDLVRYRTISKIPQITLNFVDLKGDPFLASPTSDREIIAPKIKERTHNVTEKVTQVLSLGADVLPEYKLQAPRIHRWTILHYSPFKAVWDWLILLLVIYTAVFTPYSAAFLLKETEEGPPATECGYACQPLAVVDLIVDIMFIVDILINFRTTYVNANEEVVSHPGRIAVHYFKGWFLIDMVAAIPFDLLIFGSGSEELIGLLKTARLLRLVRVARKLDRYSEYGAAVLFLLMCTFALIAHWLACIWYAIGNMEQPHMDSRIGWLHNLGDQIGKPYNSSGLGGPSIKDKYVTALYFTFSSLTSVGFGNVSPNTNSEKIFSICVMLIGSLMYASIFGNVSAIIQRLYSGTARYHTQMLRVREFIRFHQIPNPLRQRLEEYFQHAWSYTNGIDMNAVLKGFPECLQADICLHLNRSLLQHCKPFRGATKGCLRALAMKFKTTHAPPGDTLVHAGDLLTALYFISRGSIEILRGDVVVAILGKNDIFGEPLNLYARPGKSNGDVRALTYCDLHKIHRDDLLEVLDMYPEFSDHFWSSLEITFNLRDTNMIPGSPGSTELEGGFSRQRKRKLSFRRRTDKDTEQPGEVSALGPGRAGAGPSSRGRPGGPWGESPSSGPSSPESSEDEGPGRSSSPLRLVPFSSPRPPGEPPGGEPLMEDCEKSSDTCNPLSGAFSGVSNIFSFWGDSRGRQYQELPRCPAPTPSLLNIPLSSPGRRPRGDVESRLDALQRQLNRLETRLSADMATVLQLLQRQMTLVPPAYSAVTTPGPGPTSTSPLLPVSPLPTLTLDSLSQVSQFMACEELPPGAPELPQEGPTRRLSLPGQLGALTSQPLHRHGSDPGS",
  "test": "whole-cell patch clamp of hERG tail current, immediate perfusion; acute block lost in Y652A and F656V mutants",
  "assay_type": "cell-based",
  "note": "pIC50: −log10 of the molar value.",
  "data": [
    {"smiles": "COc1ccc2c(c1OC)CN1CCc3cc4c(cc3C1=C2)OCO4", "note": "[DHB, dihydroberberine]", "values": [
      {"measurement": "pIC50", "result": 4.98}
    ]}
  ]
}
